Experiments:
[1] = system: TRZAWR (Wheat, Winter, cv Riband); experiment: Preemergence herbicidal evaluation; assay type: in vivo, Triticum aestivum; settings: preemergence, rated 4-5 weeks after treatment, 0-9 scale
Summary of the method: (§1)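 Greenhouse preemergence test: seed-soil mix sown on ~1 inch soil; aqueous acetone spray at equivalent of ~0.0156–0.500 kg/ha; greenhouse-held and watered; scored 0–9 visually at 4–5 weeks.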

ZEAMX (Corn, Field) = experiment: Preemergence herbicidal evaluation; assay type: in vivo, Zea mays; settings: preemergence, rated 4-5 weeks after treatment, 0-9 scale
Summary of the method: as §1

[2] = system: CHEAL (Lambsquarters, Common); experiment: Postemergence herbicidal evaluation; assay type: in vivo, Chenopodium album; settings: postemergence
Summary of the method: (§2)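 Scores (0–9) reflect plant stand, vigor, malformation, size, chlorosis and general appearance relative to control, read 4 to 5 weeks after treatment and averaged where tests were repeated. Application: about 0.0156–0.500 kg/ha sprayed at 40 psi onto two-week seedlings.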

CYPSE (Flatsedge) = experiment: Postemergence weed control under flooded paddy conditions; assay type: in vivo, Cyperus serotinus; settings: postemergence weeds, rated 3 to 4 weeks after treatment
Summary of the method: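 With weeds 3 to 5 cm tall and rice at the 1.5 to 2.5 leaf stage, containers were flooded and water held 1.5 to 3 cm above soil. Compounds in 50/50 v/v aqueous/acetone went into the flood water at about 0.0313 to 0.500 kg/ha a.i. Effects were visually rated 0–9 against controls after three to four weeks in the greenhouse.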

[3] = system: SAGPY (Arrowhead (Pygmaea)); experiment: Preemergence weed control under flooded paddy conditions; assay type: in vivo, Sagittaria pygmaea; settings: rated 3-4 weeks after treatment
Summary of the method: (§3)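 Herbicidal effect is scored visually on a 0-9 scale against an untreated control, three to four weeks after compounds are pipetted into the flood water (1.5 to 3 cm deep) over seeds planted in silt loam at 0.5 cm depth. Rates: about 0.0313 to 0.500 kg/ha.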

CASOB (Sicklepod) = experiment: Postemergence herbicidal evaluation; assay type: in vivo, Cassia obtusifolia; settings: postemergence
Summary of the method: as §2

MOOVA (Monochoria) = experiment: Preemergence weed control under flooded paddy conditions; assay type: in vivo, Monochoria vaginalis; settings: rated 3-4 weeks after treatment
Summary of the method: as §3

ORYSAT (Rice, Tebonnet) [4] = experiment: Preemergence herbicidal evaluation; assay type: in vivo, Oryza sativa, (L.) Tebonnet; settings: preemergence, rated 4-5 weeks after treatment, 0-9 scale
Summary of the method: as §1

ECHCG (Barnyardgrass) = experiment: Postemergence herbicidal evaluation; assay type: in vivo, Echinochloa crus-galli; settings: postemergence
Summary of the method: as §2

GALAP (Galium) = experiment: Preemergence herbicidal evaluation; assay type: in vivo, Galium aparine; settings: preemergence, rated 4-5 weeks after treatment, 0-9 scale
Summary of the method: as §1

CYPIR (Rice Flatsedge) = experiment: Preemergence weed control under flooded paddy conditions; assay type: in vivo, Cyperus iria; settings: rated 3-4 weeks after treatment
Summary of the method: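 Seeds or propagules sown in silt loam kept flooded 1.5-3 cm; compounds in 50/50 acetone/water pipetted into flood water at about 0.0313 to 0.500 kg/ha. Greenhouse; visual 0-9 rating versus untreated control 3-4 weeks after treatment.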

SETVI (Foxtail, Green) = experiment: Preemergence herbicidal evaluation; assay type: in vivo, Setaria viridis; settings: preemergence, rated 4-5 weeks after treatment, 0-9 scale
Summary of the method: as §1

ORYSAT (Rice, Tebonnet) [5] = experiment: Postemergence herbicidal evaluation; assay type: in vivo, Oryza sativa, (L.) Tebonnet; settings: postemergence
Summary of the method: as §2

[6] = system: GLXMAW (Soybean, Williams); experiment: Preemergence herbicidal evaluation; assay type: in vivo, Glycine max, (L.) Merr. cv Williams; settings: preemergence, rated 4-5 weeks after treatment, 0-9 scale
Summary of the method: as §1

In the case of `COC(=O)CC1SC(=Nc2cc(-n3c(=O)cc(C(F)(F)F)n(C)c3=O)c(F)cc2Cl)N(C)C1=O` (stereo not shown) [Compound 88, Methyl 2-{{2-chloro-5-[3,6-dihydro-3-methyl-2,6-dioxo-4-(trifluoromethyl)-1(2H)-pyrimidinyl]-4-fluorophenyl}imino}-3-methyl-4-oxo-5-thiazolidineacetate], the TRZAWR rating ([1]; 0.0156 kg/ha) is reported as 0.0, the TRZAWR rating ([1]; 0.0313 kg/ha) is reported as 0.0 and the TRZAWR rating ([1]; 0.0625 kg/ha) is reported as 0.0. It also gave a TRZAWR rating ([1]; 0.1250 kg/ha) of 3.0, a TRZAWR rating ([1]; 0.2500 kg/ha) of 9.0 and a ZEAMX rating (ZEAMX (Corn, Field); 0.0156 kg/ha) of 0.0. It also gave a ZEAMX rating (ZEAMX (Corn, Field); 0.0313 kg/ha) of 0.0, a ZEAMX rating (ZEAMX (Corn, Field); 0.0625 kg/ha) of 0.0 and a ZEAMX rating (ZEAMX (Corn, Field); 0.1250 kg/ha) of 6.0. For the same molecule, the ZEAMX rating (ZEAMX (Corn, Field); 0.2500 kg/ha) was 8.0, the CHEAL herbicidal rating ([2]; rate 0.0158 kg/ha) was 9.0 and the CHEAL herbicidal rating ([2]; rate 0.0315 kg/ha) was 9.0. The CHEAL herbicidal rating ([2]; rate 0.0630 kg/ha) was 9.0, the “Herbicidal rating CYPSE” value (CYPSE (Flatsedge); Rate 0.0313 kg/ha) was 3.0 and the “Herbicidal rating CYPSE” value (CYPSE (Flatsedge); Rate 0.0625 kg/ha) was 5.0. The “Herbicidal rating CYPSE” value (CYPSE (Flatsedge); Rate 0.1250 kg/ha) was 7.0, the “Herbicidal rating CYPSE” value (CYPSE (Flatsedge); Rate 0.2500 kg/ha) was 7.0 and the “SAGPY herbicidal effect rating” value ([3]; 0.0313 kg/ha) was 6.0. The “SAGPY herbicidal effect rating” value ([3]; 0.0625 kg/ha) was 9.0, the “SAGPY herbicidal effect rating” value ([3]; 0.1250 kg/ha) was 9.0 and the “SAGPY herbicidal effect rating” value ([3]; 0.2500 kg/ha) was 9.0. The CASOB herbicidal rating (CASOB (Sicklepod); rate 0.0158 kg/ha) was 0.0, the CASOB herbicidal rating (CASOB (Sicklepod); rate 0.0315 kg/ha) was 3.0 and the CASOB herbicidal rating (CASOB (Sicklepod); rate 0.0630 kg/ha) was 3.0. For the same molecule, the “MOOVA herbicidal effect rating” value (MOOVA (Monochoria); 0.0313 kg/ha) was 9.0, the “MOOVA herbicidal effect rating” value (MOOVA (Monochoria); 0.0625 kg/ha) was 9.0 and the “MOOVA herbicidal effect rating” value (MOOVA (Monochoria); 0.1250 kg/ha) was 9.0. For the same molecule, the “MOOVA herbicidal effect rating” value (MOOVA (Monochoria); 0.2500 kg/ha) was 9.0, the ORYSAT rating (ORYSAT (Rice, Tebonnet) [4]; 0.0156 kg/ha) was 0.0 and the ORYSAT rating (ORYSAT (Rice, Tebonnet) [4]; 0.0313 kg/ha) was 0.0. For the same molecule, the ORYSAT rating (ORYSAT (Rice, Tebonnet) [4]; 0.0625 kg/ha) was 0.0, the ORYSAT rating (ORYSAT (Rice, Tebonnet) [4]; 0.1250 kg/ha) was 2.0 and the ORYSAT rating (ORYSAT (Rice, Tebonnet) [4]; 0.2500 kg/ha) was 7.0. The ECHCG herbicidal rating (ECHCG (Barnyardgrass); rate 0.0158 kg/ha) was 1.0, the ECHCG herbicidal rating (ECHCG (Barnyardgrass); rate 0.0315 kg/ha) was 7.0 and the ECHCG herbicidal rating (ECHCG (Barnyardgrass); rate 0.0630 kg/ha) was 7.0. The GALAP rating (GALAP (Galium); 0.0156 kg/ha) was 0.0, the GALAP rating (GALAP (Galium); 0.0313 kg/ha) was 0.0 and the GALAP rating (GALAP (Galium); 0.0625 kg/ha) was 3.0. The GALAP rating (GALAP (Galium); 0.1250 kg/ha) was 3.0, the GALAP rating (GALAP (Galium); 0.2500 kg/ha) was 9.0 and the “CYPIR herbicidal effect rating” value (CYPIR (Rice Flatsedge); 0.0313 kg/ha) was 0.0. The “CYPIR herbicidal effect rating” value (CYPIR (Rice Flatsedge); 0.0625 kg/ha) was 0.0, the “CYPIR herbicidal effect rating” value (CYPIR (Rice Flatsedge); 0.1250 kg/ha) was 0.0 and the “CYPIR herbicidal effect rating” value (CYPIR (Rice Flatsedge); 0.2500 kg/ha) was 0.0. It also gave an SETVI rating (SETVI (Foxtail, Green); 0.0156 kg/ha) of 0.0, an SETVI rating (SETVI (Foxtail, Green); 0.0313 kg/ha) of 0.0 and an SETVI rating (SETVI (Foxtail, Green); 0.0625 kg/ha) of 3.0. The SETVI rating (SETVI (Foxtail, Green); 0.1250 kg/ha) was 7.0, the SETVI rating (SETVI (Foxtail, Green); 0.2500 kg/ha) was 9.0 and the ORYSAT herbicidal rating (ORYSAT (Rice, Tebonnet) [5]; rate 0.0158 kg/ha) was 2.0. The ORYSAT herbicidal rating (ORYSAT (Rice, Tebonnet) [5]; rate 0.0315 kg/ha) was 5.5, the ORYSAT herbicidal rating (ORYSAT (Rice, Tebonnet) [5]; rate 0.0630 kg/ha) was 6.0 and the GLXMAW rating ([6]; 0.0156 kg/ha) was 0.0. The GLXMAW rating ([6]; 0.0313 kg/ha) was 0.0, the GLXMAW rating ([6]; 0.0625 kg/ha) was 0.0 and the GLXMAW rating ([6]; 0.1250 kg/ha) was 4.0. The GLXMAW rating ([6]; 0.2500 kg/ha) was 9.0.

Reference: patent US20020137929A1, “1 - (3-heterocyclylphenyl) isothiourea, -isourea, -guanidine and -amidine herbicidal agents” (Intellectual Property Department, BASF Aktiengesellschaft, priority 1998, published 2002)
